The subject of assay [1] is Mus musculus. Put plainly: Evaluated for the antagonism of apomorphine-induced climbing behavior in mice (sc). In kind it is functional.
Assay [2] relates to Rattus norvegicus. In words: Evaluated for lowest active dose (LAD) for (gastric prokinetic activity) stimulation of intragastric pressure (IGP) in rats (sc); Inactive (0.5-10 mg/kg). It is filed as functional, organism-based.
Assay [3] deals with Rattus norvegicus. Put plainly: Evaluated for lowest active dose (LAD) for (gastric prokinetic activity) stimulation of intragastric pressure (IGP) in rats (sc). It is filed as functional.
Assay [4] concerns the target D(2) dopamine receptor (Rattus norvegicus, UniProt P61169). Put plainly: Binding affinity against Dopamine receptor D2 at 10e-3 M concentration using [3H]spiperone in rat striatal tissue.
Assay [5] addresses D(1A) dopamine receptor (Rattus norvegicus, UniProt P18901). Put plainly: Binding affinity against Dopamine receptor D1 at 10e-3 M concentration using cis-[3H]flupenthixol in rat striatal tissue.
Assay [6] deals with Rattus norvegicus. Put plainly: Effective concentration for inhibition of amphetamine-induced locomotor activity in rats 4 hr after dosing administered intraperitoneally. In kind it is functional. Conditions: ip.
Assay [7] has as its system Rattus norvegicus. Put plainly: Compound was tested for inducing catalepsy 4 hr after dose administered intraperitoneally. It is filed as functional. The conditions noted are these: ip.

Active and inactive are the calls of the source. The calls are words filed in the database; no cut-off is given here.

As a reminder, the ED50 is the midpoint of the dose-response relation. A low value points to an effect at a small dose. A word on the Ki: it is a dissociation constant, usually derived from enzyme kinetics or from competition with a known ligand. Higher therefore signals a looser hold on the target.

Sequence of D(1A) dopamine receptor (P18901 whole entry): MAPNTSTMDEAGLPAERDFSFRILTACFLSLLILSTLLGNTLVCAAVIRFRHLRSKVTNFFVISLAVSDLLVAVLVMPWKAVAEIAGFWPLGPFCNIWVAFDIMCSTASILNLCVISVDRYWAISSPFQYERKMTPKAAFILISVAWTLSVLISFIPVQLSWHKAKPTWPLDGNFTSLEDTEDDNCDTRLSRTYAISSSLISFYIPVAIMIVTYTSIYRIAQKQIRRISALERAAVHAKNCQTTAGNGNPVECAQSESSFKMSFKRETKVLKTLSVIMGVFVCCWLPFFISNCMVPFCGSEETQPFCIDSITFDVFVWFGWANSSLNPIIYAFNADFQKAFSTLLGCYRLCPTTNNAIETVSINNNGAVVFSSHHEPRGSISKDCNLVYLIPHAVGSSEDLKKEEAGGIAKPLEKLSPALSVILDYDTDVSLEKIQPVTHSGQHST
Sequence of D(2) dopamine receptor (P61169 whole entry): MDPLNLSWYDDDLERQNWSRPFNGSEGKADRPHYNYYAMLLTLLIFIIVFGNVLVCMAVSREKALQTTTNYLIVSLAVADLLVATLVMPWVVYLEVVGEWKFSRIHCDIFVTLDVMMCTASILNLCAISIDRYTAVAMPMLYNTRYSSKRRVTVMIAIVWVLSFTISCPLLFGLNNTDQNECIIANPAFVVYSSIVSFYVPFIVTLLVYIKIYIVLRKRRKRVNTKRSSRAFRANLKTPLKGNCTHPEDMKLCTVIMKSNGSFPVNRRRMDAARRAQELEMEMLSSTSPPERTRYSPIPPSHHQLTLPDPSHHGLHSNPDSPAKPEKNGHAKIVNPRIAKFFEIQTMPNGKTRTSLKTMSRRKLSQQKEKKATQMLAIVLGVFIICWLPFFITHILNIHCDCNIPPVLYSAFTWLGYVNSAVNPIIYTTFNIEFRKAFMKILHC

With `COc1cc(N)c(Cl)cc1C(=O)NC1CCN2C[C@@H](c3ccccc3)CCC2C1` (some centres undefined), in assay [1], the ED50 is > 1 mg/kg. In addition, the LAD result in assay [2] was “inactive”.

Turning to `COc1cc(N)c(Cl)cc1C(=O)NC1CCN2CC(c3ccccc3F)CC2C1` (centres undefined), in assay [1], the 50% effect level (ED50) was put at a dose of 0.03 mg/kg.

On to `COc1cc(N)c(Cl)cc1C(=O)NC1CCN(Cc2ccccc2)CC1` [CLEBOPRIDE], for which it took a dose of 0.037 mg/kg to reach the 50% effect level in assay [1] (ED50). Besides, in assay [3], the LAD came to 1 mg/kg.

Turning to `COc1cc(N)c(Cl)cc1C(=O)NC1CCN2C[C@H](c3ccccc3)CC2C1` (some centres undefined), the ED50 in assay [1] is > 3 mg/kg. Further, the LAD in assay [3] came out at 1 mg/kg.

As to `COc1cc(N)c(Cl)cc1C(=O)NC1CCN2CC(C)(c3ccccc3)CC2C1` (centres undefined), the Ki in assay [4] was 250 nM; in assay [5] it was > 10000 nM. Further, the values for the median effective dose (ED50) in assay [1], in assay [6] and in assay [7] were 0.078 mg/kg, 0.02 mg/kg and 3.4 mg/kg, respectively. The LAD result in assay [2] was “inactive”.

As for `COc1cc(N)c(Cl)cc1C(=O)NC1CCN2CC(c3ccc(F)cc3)CC2C1` (centres undefined), the median effective dose (ED50) in assay [1] is 0.015 mg/kg.

On to `COc1cc(N)c(Cl)cc1C(=O)NC1CCN2CC(c3ccccc3)(c3ccccc3)CC2C1` (centres undefined), for which the ED50 in assay [1] was > 1 mg/kg. Further, the LAD entry in assay [2] is “inactive”.

In assay [1], `COc1cc(N)c(Cl)cc1C(=O)NC1CCN2C[C@@H](c3ccccc3)CC2C1` (some centres undefined) registered an ED50 of 0.024 mg/kg. Besides, the LAD result in assay [2] is “inactive”.

In assay [1], `COc1cc(N)c(Cl)cc1C(=O)NC1CC(C)N2CC(c3ccccc3)CC2C1` (centres undefined) showed an ED50 of 0.4 mg/kg. Moreover, the LAD entry in assay [2] is “inactive”.

On to `COc1cc(N)c(Cl)cc1C(=O)NC1CCN2C[C@H](c3ccccc3)CCC2C1` (some centres undefined), for which, in assay [1], the ED50 is > 1 mg/kg. Also, the LAD entry in assay [2] was “inactive”.

Compound `CCN(CC)CCNC(=O)c1cc(Cl)c(N)cc1OC` [METOCLOPRAMIDE] gave an ED50 in assay [1] of 0.75 mg/kg. In assay [3], this compound yielded an LAD of 1 mg/kg.

The record behind these values is ChEMBL document CHEMBL1124195, “Substituted benzamides with conformationally restricted side chains. 2. Indolizidine derivatives as central dopamine receptor antagonists” (J Med Chem, 1988).
